According to PubChem BioAssay AID248 (DTP/NCI, 2004):
Inconclusive results and toxic doses are left out.

Tested on: L1210 leukemia ip in BDF1 mice, survival T/C
Experiment: NCI In Vivo Anticancer Drug Screen. Data for tumor model L1210 Leukemia (intraperitoneal) in B6D2F1 (BDF1) mice
Settings: endpoint: mean survival time, higher = longer survival
Method in brief: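 Tumor was transplanted into mice, which were then dosed with test compound or vehicle alone. Survival was recorded for each group, and the treated figure was expressed relative to the control figure.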

[1] = dose: 100.0 mg/kg/injection, schedule: Q01DX001 (ip), vehicle: carboxymethylcellulose (CMC)
[2] = dose: 100.0 mg/kg/injection, schedule: Q04DX003 (ip), vehicle: other
[3] = dose: 200.0 mg/kg/injection, schedule: Q01DX001 (ip), vehicle: carboxymethylcellulose (CMC)
[4] = dose: 200.0 mg/kg/injection, schedule: Q01DX009 (ip), vehicle: other
[5] = dose: 200.0 mg/kg/injection, schedule: Q04DX003 (ip), vehicle: other
[6] = dose: 400.0 mg/kg/injection, schedule: Q01DX001 (ip), vehicle: carboxymethylcellulose (CMC)
[7] = dose: 50.0 mg/kg/injection, schedule: Q04DX003 (ip), vehicle: saline
[8] = dose: 400.0 mg/kg/injection, schedule: Q01DX009 (ip), vehicle: saline
[9] = dose: 100.0 mg/kg/injection, schedule: Q01DX001 (ip), vehicle: other
[10] = dose: 200.0 mg/kg/injection, schedule: Q01DX001 (ip), vehicle: other
[11] = dose: 400.0 mg/kg/injection, schedule: Q01DX001 (ip), vehicle: other
[12] = dose: 100.0 mg/kg/injection, schedule: Q04DX003 (ip), vehicle: saline with Tween-80
[13] = dose: 200.0 mg/kg/injection, schedule: Q04DX003 (ip), vehicle: saline with Tween-80
[14] = dose: 100.0 mg/kg/injection, schedule: Q04DX003 (ip), vehicle: Klucel (hydroxypropylcellulose) (HPC)
[15] = dose: 200.0 mg/kg/injection, schedule: Q04DX003 (ip), vehicle: Klucel (hydroxypropylcellulose) (HPC)
[16] = dose: 400.0 mg/kg/injection, schedule: Q04DX003 (ip), vehicle: Klucel (hydroxypropylcellulose) (HPC)
[17] = dose: 100.0 mg/kg/injection, schedule: Q01DX001 (ip), vehicle: saline
[18] = dose: 200.0 mg/kg/injection, schedule: Q01DX001 (ip), vehicle: saline
[19] = dose: 400.0 mg/kg/injection, schedule: Q01DX001 (ip), vehicle: saline
[20] = dose: 100.0 mg/kg/injection, schedule: Q01DX009 (ip), vehicle: Klucel (hydroxypropylcellulose) (HPC)
[21] = dose: 200.0 mg/kg/injection, schedule: Q01DX009 (ip), vehicle: Klucel (hydroxypropylcellulose) (HPC)
[22] = dose: 400.0 mg/kg/injection, schedule: Q01DX009 (ip), vehicle: Klucel (hydroxypropylcellulose) (HPC)

In the case of `CC(CNC(=O)CCOS(C)(=O)=O)CNC(=O)CCOS(C)(=O)=O`, the T/C [1] is reported as 115 % of control, the T/C [2] is reported as 105 % of control and the T/C (dose: 132.0 mg/kg/injection, schedule: Q01DX009 (ip), vehicle: other) is reported as 113 % of control. For the same compound, the T/C [3] was 107 % of control, the T/C [4] was 122 % of control and the T/C [5] was 121 % of control. For the same compound, the T/C (dose: 264.0 mg/kg/injection, schedule: Q04DX003 (ip), vehicle: saline) was 114 % of control and the T/C [6] was 120 % of control.
`COc1cccc2c1C(=O)c1c(OC)c(C(Br)Br)cc(OC)c1C2=O` was tested, and the T/C (dose: 12.5 mg/kg/injection, schedule: Q01DX009 (ip), vehicle: other) was 99 % of control, the T/C (dose: 25.0 mg/kg/injection, schedule: Q01DX009 (ip), vehicle: other) was 89 % of control and the T/C (dose: 50.0 mg/kg/injection, schedule: Q01DX009 (ip), vehicle: other) was 89 % of control. The T/C (dose: 100.0 mg/kg/injection, schedule: Q01DX009 (ip), vehicle: other) was 89 % of control and the T/C [4] was 87 % of control.
In the case of `CCOP(=O)(OCC)OCc1ccccc1`, the T/C (dose: 12.5 mg/kg/injection, schedule: Q04DX003 (ip), vehicle: saline with Tween-80) is reported as 98 % of control.
In the case of `O=c1[nH]cc(F)c(=O)n1C1OC(CO)C(O)C1O` (configuration not stated), the T/C (dose: 0.78 mg/kg/injection, schedule: Q01DX009 (ip), vehicle: saline) is reported as 124 % of control, the T/C (dose: 1.5 mg/kg/injection, schedule: Q01DX009 (ip), vehicle: saline) is reported as 159 % of control and the T/C (dose: 1.56 mg/kg/injection, schedule: Q01DX009 (ip), vehicle: saline) is reported as 152 % of control. For the same compound, the T/C (dose: 3.12 mg/kg/injection, schedule: Q01DX005 (ip), vehicle: saline) was 167 % of control, the T/C (dose: 3.12 mg/kg/injection, schedule: Q01DX009 (ip), vehicle: saline) was 173 % of control and the T/C (dose: 6.0 mg/kg/injection, schedule: Q01DX009 (ip), vehicle: saline) was 97 % of control. For the same compound, the T/C (dose: 6.25 mg/kg/injection, schedule: Q01DX005 (ip), vehicle: saline) was 171 % of control, the T/C (dose: 6.25 mg/kg/injection, schedule: Q01DX009 (ip), vehicle: saline) was 204 % of control and the T/C (dose: 12.5 mg/kg/injection, schedule: Q01DX009 (ip), vehicle: saline) was 231 % of control. For the same compound, the T/C (dose: 18.8 mg/kg/injection, schedule: Q04DX003 (ip), vehicle: saline) was 107 % of control, the T/C (dose: 25.0 mg/kg/injection, schedule: Q01DX009 (ip), vehicle: saline) was 118 % of control and the T/C (dose: 25.0 mg/kg/injection, schedule: Q04DX003 (ip), vehicle: saline) was 105 % of control. For the same compound, the T/C (dose: 37.5 mg/kg/injection, schedule: Q04DX003 (ip), vehicle: saline) was 110 % of control, the T/C [7] was 110 % of control and the T/C (dose: 178.0 mg/kg/injection, schedule: Q01DX009 (ip), vehicle: saline) was 165 % of control. The T/C (dose: 267.0 mg/kg/injection, schedule: Q01DX009 (ip), vehicle: saline) was 163 % of control, the T/C [8] was 150 % of control and the T/C (dose: 600.0 mg/kg/injection, schedule: Q01DX009 (ip), vehicle: saline) was 171 % of control.
For `O=NN(CCN(N=O)c1ccccc1)c1ccccc1`, the T/C [9] was 97 % of control, the T/C [2] was 104 % of control and the T/C [10] was 97 % of control. For the same compound, the T/C [5] was 101 % of control, the T/C [11] was 92 % of control and the T/C (dose: 400.0 mg/kg/injection, schedule: Q04DX003 (ip), vehicle: other) was 97 % of control.
For `FC(F)(F)c1nc2cccc3c2n1CCC3`, the T/C (dose: 50.0 mg/kg/injection, schedule: Q01DX009 (ip), vehicle: saline with Tween-80) was 93 % of control, the T/C (dose: 100.0 mg/kg/injection, schedule: Q01DX009 (ip), vehicle: saline with Tween-80) was 87 % of control and the T/C [12] was 97 % of control. For the same compound, the T/C (dose: 200.0 mg/kg/injection, schedule: Q01DX009 (ip), vehicle: saline with Tween-80) was 101 % of control and the T/C [13] was 96 % of control.
For `Cn1nc(C(=O)O)c(=O)[nH]c1=O`, the T/C (dose: 100.0 mg/kg/injection, schedule: Q01DX Z (ip), vehicle: methylcellulose (MC)) was 97 % of control.
With `CC(=O)OC1CCC2(C)C(=CCC3C2CCC2(C)C3CC(Br)C2C(C)=O)C1` (configuration not stated) the T/C [14] was 107 % of control, the T/C [15] was 88 % of control and the T/C [16] was 103 % of control.
`N#C/C(=C\c1c(Cl)cccc1Cl)c1ccc([N+](=O)[O-])cc1` was tested, and the T/C [12] was 106 % of control, the T/C [13] was 95 % of control and the T/C (dose: 400.0 mg/kg/injection, schedule: Q04DX003 (ip), vehicle: saline with Tween-80) was 92 % of control.
With `O=C(C(=O)c1ccc(O)cc1O)c1ccc(O)cc1O` the T/C [17] was 97 % of control, the T/C [18] was 97 % of control and the T/C [19] was 97 % of control.
In the case of `COC(=O)c1ccc(OCCOc2ccc(C(C)(C)CC(C)(C)C)cc2)c(N)c1`, the T/C [20] is reported as 97 % of control, the T/C [21] is reported as 105 % of control and the T/C [22] is reported as 91 % of control.
`O=C(NCCCl)Nc1ccc(C(=O)O)c(O)c1` was tested, and the T/C (dose: 80.0 mg/kg/injection, schedule: Q04DX002 (ip), vehicle: Klucel (hydroxypropylcellulose) (HPC)) was 98 % of control, the T/C (dose: 160.0 mg/kg/injection, schedule: Q04DX002 (ip), vehicle: Klucel (hydroxypropylcellulose) (HPC)) was 88 % of control and the T/C (dose: 320.0 mg/kg/injection, schedule: Q04DX002 (ip), vehicle: Klucel (hydroxypropylcellulose) (HPC)) was 91 % of control.
For `CC(=O)c1ccc(N2C(=O)C=CC2=O)cc1`, the T/C (dose: 25.0 mg/kg/injection, schedule: Q04DX003 (ip), vehicle: Klucel (hydroxypropylcellulose) (HPC)) was 114 % of control and the T/C (dose: 50.0 mg/kg/injection, schedule: Q04DX003 (ip), vehicle: Klucel (hydroxypropylcellulose) (HPC)) was 115 % of control.
With `O=c1[nH]c2ccc(Cl)cc2c(=O)o1` the T/C [17] was 92 % of control, the T/C (dose: 100.0 mg/kg/injection, schedule: Q01DX009 (ip), vehicle: saline) was 100 % of control and the T/C [18] was 95 % of control. For the same compound, the T/C (dose: 200.0 mg/kg/injection, schedule: Q01DX009 (ip), vehicle: saline) was 98 % of control, the T/C [19] was 101 % of control and the T/C [8] was 90 % of control.
For `CC(=O)OC(CC[P+](c1ccccc1)(c1ccccc1)c1ccccc1)(C(=O)c1ccccc1)c1ccccc1` (configuration not stated), the T/C (dose: 100.0 mg/kg/injection, schedule: Q01DX001 (ip), vehicle: saline with Tween-80) was 95 % of control.
For `NC(=O)c1cc(=O)n(C2OC(CO)C(O)C2O)c2nc(N)nc(N)c12` (configuration not stated), the T/C (dose: 12.5 mg/kg/injection, schedule: Q01DX005 (ip), vehicle: water) was 93 % of control, the T/C (dose: 25.0 mg/kg/injection, schedule: Q01DX005 (ip), vehicle: water) was 90 % of control and the T/C (dose: 50.0 mg/kg/injection, schedule: Q01DX005 (ip), vehicle: water) was 90 % of control. The T/C (dose: 100.0 mg/kg/injection, schedule: Q01DX005 (ip), vehicle: water) was 90 % of control and the T/C (dose: 200.0 mg/kg/injection, schedule: Q01DX005 (ip), vehicle: water) was 93 % of control.
`CC1(C)NC(=O)N(CCO)C1=O` was tested, and the T/C [7] was 111 % of control, the T/C (dose: 100.0 mg/kg/injection, schedule: Q04DX003 (ip), vehicle: saline) was 111 % of control and the T/C (dose: 200.0 mg/kg/injection, schedule: Q04DX003 (ip), vehicle: saline) was 100 % of control. For the same compound, the T/C (dose: 400.0 mg/kg/injection, schedule: Q04DX003 (ip), vehicle: saline) was 101 % of control.
`O=[N+]([O-])c1cc2c3ccccc3oc2c2cccnc12` was tested, and the T/C [20] was 91 % of control, the T/C [14] was 90 % of control and the T/C [21] was 90 % of control. The T/C [15] was 90 % of control and the T/C [16] was 89 % of control.
With `O=C(Nc1nc2ccccc2s1)c1ccc(C(=O)Nc2nc3ccccc3s2)cc1` the T/C [9] was 93 % of control, the T/C [10] was 90 % of control and the T/C [11] was 91 % of control.
For `Cc1c(C)c(C)c(CNNC(=S)Nc2cccc(Cl)c2)c(C)c1C`, the T/C [20] was 95 % of control, the T/C [21] was 91 % of control and the T/C [22] was 91 % of control.
With `COC(=O)c1ccccc1NC(=O)Nc1ccccc1` the T/C [20] was 108 % of control, the T/C [14] was 101 % of control and the T/C [21] was 101 % of control. For the same compound, the T/C [15] was 101 % of control, the T/C [22] was 100 % of control and the T/C [16] was 98 % of control.
For `CC(C)(C)c1cccc(C(=O)O)c1O`, the T/C [1] was 97 % of control, the T/C [3] was 97 % of control and the T/C [6] was 90 % of control.
